Results reported in patent publication US20100075854A1, “HERBICIDE COMBINATION COMPRISING DIMETHOSXYTRIAZINYL-SUBSTITUTED DIFLUOROMETHANESULFONYLANILIDES” (Bayer CropScience AG, priority 2008, published 2010).
Like-named read-outs stand apart in the source and are kept apart here.

Tests used:
Assay in all cases: Post-emergence action, greenhouse pot test, visual scoring
Format in all cases: in vivo
[1] = test system: Abuthilon theophrasti (ABUTH); details: Abutilon theophrasti, ABUTH, read-out: % activity found; for inhibition at 4 g/ha: 4 g of ai/ha; for inhibition at 12 g/ha: 12 g of ai/ha
Procedure: (§1) Seeds or rhizome pieces of mono- and dicotyledonous harmful and useful plants were placed in peat pots (diameter 4 cm) filled with sandy loam and then covered with soil. The pots were kept in a greenhouse under optimum conditions. In addition, harmful plants encountered in paddy rice cultivation were cultivated in pots with a water level 2 cm above the soil surface.
(§2) About three weeks after the start of the cultivation, the test plants were treated at the 2- to 3-leaf stage. The herbicides, formulated as powder or liquid concentrates, were, either alone or in the combinations according to the invention, sprayed in various dosages on to the green parts of the plants using an application rate of 600 l of water/ha (converted). For further cultivation of the plants, the pots were then again kept under optimum conditions in a greenhouse.
(§3) The visual scoring of the herbicidal effects was carried out in intervals up to 21 days after the treatment. Scoring was carried out in percent in comparison to the untreated control plants. 0%=no herbicidal activity, 100%=complete herbicidal activity=complete kill.
(§4) The percentages from the treatments with the herbicides alone (=individual application) and with the combinations according to the invention (=mixtures) were employed to calculate interactions using the method of Colby. When the observed efficacies of the mixtures exceed the formal sum of the values of the tests with individual applications, they also exceed the expected value according to Colby, which is calculated using the formula below (cf. S. R. Colby; in Weeds 15 (1967) pp. 20 to 22):
(§5) • A, B=activity of components A and B in percent at a dosage of a and b g of ai/ha (=gramm of active substance per hectare), respectively. • E=expected value in % at a dosage of a+b g of ai/ha.

[2] = test system: Alopecurus myosuroides (ALOMY); details: 504 h, ALOMY, 21 DAT, read-out: % activity found
Procedure: as §1, §2, §3, §4, §5

[3] = test system: Amaranthus retroflexus (AMARE); details: AMARE, read-out: % activity found; for inhibition at 12 g/ha: 12 g of ai/ha
Procedure: as §1, §2, §3, §4, §5

[4] = test system: Avena fatua (AVEFA); details: AVEFA, read-out: % activity found; for inhibition at 4 g/ha: 4 g of ai/ha; for inhibition at 12 g/ha: 12 g of ai/ha
Procedure: as §1, §2, §3, §4, §5

[5] = test system: Cyperus esculentus (CYPES); details: CYPES, 21 DAT
Procedure: as §1, §2, §3, §4, §5

[6] = test system: Fallopia (ex Polygonum) convolvulus (POLCO); details: POLCO, read-out: % activity found; for inhibition at 4 g/ha: 4 g of ai/ha; for inhibition at 12 g/ha: 12 g of ai/ha
Procedure: as §1, §2, §3, §4, §5

[7] = test system: Lolium multiflorum (LOLMU); details: read-out: % activity found; for inhibition at 4 g/ha: 4 g of ai/ha; for inhibition at 12 g/ha: 12 g of ai/ha
Procedure: as §1, §2, §3, §4, §5

[8] = test system: Matricaria inodora (MATIN); details: Tripleurospermum inodorum, MATIN, read-out: % activity found; for inhibition at 4 g/ha: 4 g of ai/ha
Procedure: as §1, §2, §3, §4, §5

[9] = test system: Oryza sativa (ORYSA); details: ORYSA, read-out: % activity found; for inhibition at 12 g/ha: 12 g of ai/ha
Procedure: as §1, §2, §3, §4, §5

[10] = test system: Pharbitis purpurea (PHBPU); details: Ipomoea purpurea, PHBPU, read-out: % activity found; for inhibition at 4 g/ha: 4 g of ai/ha; for inhibition at 12 g/ha: 12 g of ai/ha
Procedure: as §1, §2, §3, §4, §5

[11] = test system: Triticum aestivum (TRZAS); details: TRZAS, read-out: % activity found; for inhibition at 4 g/ha: 4 g of ai/ha; for inhibition at 12 g/ha: 12 g of ai/ha
Procedure: as §1, §2, §3, §4, §5

[12] = test system: Veronica persica (VERPE); details: VERPE, read-out: % activity found; for inhibition at 12 g/ha: 12 g of ai/ha
Procedure: as §1, §2, §3, §4, §5

[13] = test system: Viola tricolor (VIOTR); details: VIOTR, read-out: % activity found; for inhibition at 4 g/ha: 4 g of ai/ha; for inhibition at 12 g/ha: 12 g of ai/ha
Procedure: as §1, §2, §3, §4, §5

[14] = test system: Zea mays (ZEAMX); details: ZEAMX, read-out: % activity found; for inhibition at 4 g/ha: 4 g of ai/ha; for inhibition at 12 g/ha: 12 g of ai/ha
Procedure: as §1, §2, §3, §4, §5

Question: With `COc1nc(OC)nc(C(=O)c2cccc(F)c2N(C)S(=O)(=O)C(F)F)n1` [A-1] as the compound, how does the inhibition at 4 g/ha ([1]; 240 h, 10 DAT) read?
Answer: The inhibition at 4 g/ha was 70%.

Question: And the inhibition at 12 g/ha ([1]; 240 h, 10 DAT)?
Answer: Its inhibition at 12 g/ha is 70%.

Question: What about the inhibition at 4 g/ha ([1]; 504 h, 21 DAT) of the same compound?
Answer: Its inhibition at 4 g/ha is 85%.

Question: What about the inhibition at 12 g/ha ([1]; 504 h, 21 DAT) of the same compound?
Answer: The inhibition at 12 g/ha was 85%.

Question: What about the inhibition at 4 g/ha ([2]; 4 g of ai/ha) of the same compound?
Answer: Its inhibition at 4 g/ha is 40%.

Question: And the inhibition at 12 g/ha ([2]; 12 g of ai/ha)?
Answer: Its inhibition at 12 g/ha is 50%.

Question: What about the inhibition at 12 g/ha ([3]; 240 h, 10 DAT) of the same compound?
Answer: Its inhibition at 12 g/ha is 70%.

Question: What about the inhibition at 4 g/ha ([3]; 504 h, 21 DAT, 4 g of ai/ha) of the same compound?
Answer: The inhibition at 4 g/ha was 70%.

Question: What about the inhibition at 12 g/ha ([3]; 504 h, 21 DAT) of the same compound?
Answer: Its inhibition at 12 g/ha is 75%.

Question: And the inhibition at 4 g/ha ([4]; 240 h, 10 DAT)?
Answer: Its inhibition at 4 g/ha is 40%.

Question: And the inhibition at 12 g/ha ([4]; 240 h, 10 DAT)?
Answer: Its inhibition at 12 g/ha is 50%.

Question: What about the inhibition at 4 g/ha ([4]; 504 h, 21 DAT) of the same compound?
Answer: The inhibition at 4 g/ha was 10%.

Question: And the inhibition at 12 g/ha ([4]; 504 h, 21 DAT)?
Answer: Its inhibition at 12 g/ha is 30%.

Question: What about the “(7) % activity found” value ([5]; (5) dose of A-1 4, alone) of the same compound?
Answer: Its value is 80%.

Question: What about the “(7) % activity found” value ([5]; (5) dose of A-1 12, alone) of the same compound?
Answer: The value was 80%.

Question: And the inhibition at 4 g/ha ([5]; Cyperus esculentus, 504 h, 4 g of ai/ha, read-out: % activity found)?
Answer: The inhibition at 4 g/ha was 80%.

Question: And the inhibition at 12 g/ha ([5]; Cyperus esculentus, 504 h, 12 g of ai/ha, read-out: % activity found)?
Answer: Its inhibition at 12 g/ha is 80%.

Question: What about the inhibition at 4 g/ha ([6]; 240 h, 10 DAT) of the same compound?
Answer: Its inhibition at 4 g/ha is 70%.

Question: And the inhibition at 12 g/ha ([6]; 240 h, 10 DAT)?
Answer: The inhibition at 12 g/ha was 70%.

Question: And the inhibition at 4 g/ha ([6]; 504 h, 21 DAT)?
Answer: The inhibition at 4 g/ha was 75%.

Question: And the inhibition at 12 g/ha ([6]; 504 h, 21 DAT)?
Answer: The inhibition at 12 g/ha was 70%.

Question: What about the inhibition at 4 g/ha ([7]; 240 h, 10 DAT) of the same compound?
Answer: Its inhibition at 4 g/ha is 0%.

Question: And the inhibition at 12 g/ha ([7]; 240 h, 10 DAT)?
Answer: The inhibition at 12 g/ha was 10%.

Question: And the inhibition at 4 g/ha ([7]; 504 h, 21 DAT)?
Answer: Its inhibition at 4 g/ha is 0%.

Question: And the inhibition at 12 g/ha ([7]; 504 h, 21 DAT)?
Answer: Its inhibition at 12 g/ha is 10%.

Question: What about the inhibition at 4 g/ha ([8]; 240 h, 10 DAT) of the same compound?
Answer: Its inhibition at 4 g/ha is 60%.

Question: What about the inhibition at 4 g/ha ([8]; 504 h, 21 DAT) of the same compound?
Answer: Its inhibition at 4 g/ha is 50%.

Question: What about the inhibition at 12 g/ha ([8]; 504 h, 21 DAT, 12 g of ai/ha) of the same compound?
Answer: The inhibition at 12 g/ha was 60%.

Question: What about the inhibition at 12 g/ha ([9]; 240 h, 10 DAT) of the same compound?
Answer: Its inhibition at 12 g/ha is 10%.

Question: What about the inhibition at 4 g/ha ([9]; 504 h, 21 DAT, 4 g of ai/ha) of the same compound?
Answer: Its inhibition at 4 g/ha is 0%.

Question: And the inhibition at 12 g/ha ([9]; 504 h, 21 DAT)?
Answer: The inhibition at 12 g/ha was 10%.

Question: What about the inhibition at 4 g/ha ([10]; 240 h, 10 DAT) of the same compound?
Answer: Its inhibition at 4 g/ha is 60%.

Question: And the inhibition at 12 g/ha ([10]; 240 h, 10 DAT)?
Answer: Its inhibition at 12 g/ha is 60%.

Question: What about the inhibition at 4 g/ha ([10]; 504 h, 21 DAT) of the same compound?
Answer: The inhibition at 4 g/ha was 60%.

Question: What about the inhibition at 12 g/ha ([10]; 504 h, 21 DAT) of the same compound?
Answer: Its inhibition at 12 g/ha is 65%.

Question: And the inhibition at 4 g/ha ([11]; 240 h, 10 DAT)?
Answer: Its inhibition at 4 g/ha is 0%.

Question: What about the inhibition at 12 g/ha ([11]; 240 h, 10 DAT) of the same compound?
Answer: The inhibition at 12 g/ha was 0%.

Question: What about the inhibition at 4 g/ha ([11]; 504 h, 21 DAT) of the same compound?
Answer: Its inhibition at 4 g/ha is 0%.

Question: And the inhibition at 12 g/ha ([11]; 504 h, 21 DAT)?
Answer: Its inhibition at 12 g/ha is 0%.

Question: What about the inhibition at 12 g/ha ([12]; 240 h, 10 DAT) of the same compound?
Answer: The inhibition at 12 g/ha was 60%.

Question: What about the inhibition at 4 g/ha ([12]; 504 h, 21 DAT, 4 g of ai/ha) of the same compound?
Answer: The inhibition at 4 g/ha was 30%.

Question: And the inhibition at 12 g/ha ([12]; 504 h, 21 DAT)?
Answer: Its inhibition at 12 g/ha is 40%.

Question: And the inhibition at 4 g/ha ([13]; 240 h, 10 DAT)?
Answer: The inhibition at 4 g/ha was 20%.

Question: What about the inhibition at 12 g/ha ([13]; 240 h, 10 DAT) of the same compound?
Answer: Its inhibition at 12 g/ha is 20%.

Question: What about the inhibition at 4 g/ha ([13]; 504 h, 21 DAT) of the same compound?
Answer: The inhibition at 4 g/ha was 0%.

Question: What about the inhibition at 12 g/ha ([13]; 504 h, 21 DAT) of the same compound?
Answer: The inhibition at 12 g/ha was 10%.

Question: And the inhibition at 4 g/ha ([14]; 240 h, 10 DAT)?
Answer: Its inhibition at 4 g/ha is 0%.

Question: And the inhibition at 12 g/ha ([14]; 240 h, 10 DAT)?
Answer: Its inhibition at 12 g/ha is 0%.

Question: What about the inhibition at 4 g/ha ([14]; 504 h, 21 DAT) of the same compound?
Answer: Its inhibition at 4 g/ha is 0%.

Question: And the inhibition at 12 g/ha ([14]; 504 h, 21 DAT)?
Answer: Its inhibition at 12 g/ha is 0%.
